# Reference: US10548902B1, “Telomerase enhancement potential of ecdysterone” (SAMI LABS LIMITED, priority 2018, dated 2020)
# Target: T1, Telomerase (Homo sapiens, UniProt O14746)
# T1 construct: endogenous in cells; host or cells: PBMCs isolated from blood, stimulated with 10 μg/ml PHA
# Assay: Telomerase activity, TeloTAGGG telomerase PCR ELISA (TRAP assay) in PHA-treated PBMCs
# Type: cell-based
# Conditions: for % increase in Telomerase activity: PBMCs, 10 μg/ml PHA, 48 hours
# Description: The assay was carried out using Telo TAGGG telomerase PCR ELISA kit (Roche). It allows highly specific amplification of telomerase mediated elongation products followed by detection through ELISA. In the first step telomerase adds the telomeric repeats (TTAGGG) tot eh 3′ end of the biotin labeled synthetic P1 primer. In the second step these elongation products are amplified using P2 and P1 primers generating telomerase specific 6 bp increments. PCR product is denatured and hybridized to a digioxigenin labeled telomere repeat specific detection probe. The resultant product is bound to a streptavidin specific miroplate via biotin labeled primer 1. The bound products are detected using anti digioxigenein antibody conjugated to horse radish peroxidase. The enzyme reaction is visualized using […] substrate.
# 2×10^5 PBMCs isolated from blood were seeded in RPMI 1640 medium in 6 well plates. Cells were treated with 10 μg/ml PHA along with different concentrations of ecdysterone/extracts containing ecdysterone. Cells were incubated in a humidified atmosphere with 5% CO2 for 48 hours. After 48 hours of incubation, cells were harvested and centrifuged at 3000 g for 10 minutes at 4° C. Supernatant was removed and PBS was added and centrifuged again. Pellet was suspended in lysis reagent on ice (TeloTAGGG™ Telomerase PCR ELISA). Suspension was retero pipetted at least thrice and incubated for 20 minutes on ice and centrifuged at 16000 g for 20 minutes at 4° C. TRAP assay followed by ELISA was performed as per manufacturer's instructions (TeloTAGGG™ Telomerase PCR ELISA, Merck).
# T1 sequence (O14746 whole entry): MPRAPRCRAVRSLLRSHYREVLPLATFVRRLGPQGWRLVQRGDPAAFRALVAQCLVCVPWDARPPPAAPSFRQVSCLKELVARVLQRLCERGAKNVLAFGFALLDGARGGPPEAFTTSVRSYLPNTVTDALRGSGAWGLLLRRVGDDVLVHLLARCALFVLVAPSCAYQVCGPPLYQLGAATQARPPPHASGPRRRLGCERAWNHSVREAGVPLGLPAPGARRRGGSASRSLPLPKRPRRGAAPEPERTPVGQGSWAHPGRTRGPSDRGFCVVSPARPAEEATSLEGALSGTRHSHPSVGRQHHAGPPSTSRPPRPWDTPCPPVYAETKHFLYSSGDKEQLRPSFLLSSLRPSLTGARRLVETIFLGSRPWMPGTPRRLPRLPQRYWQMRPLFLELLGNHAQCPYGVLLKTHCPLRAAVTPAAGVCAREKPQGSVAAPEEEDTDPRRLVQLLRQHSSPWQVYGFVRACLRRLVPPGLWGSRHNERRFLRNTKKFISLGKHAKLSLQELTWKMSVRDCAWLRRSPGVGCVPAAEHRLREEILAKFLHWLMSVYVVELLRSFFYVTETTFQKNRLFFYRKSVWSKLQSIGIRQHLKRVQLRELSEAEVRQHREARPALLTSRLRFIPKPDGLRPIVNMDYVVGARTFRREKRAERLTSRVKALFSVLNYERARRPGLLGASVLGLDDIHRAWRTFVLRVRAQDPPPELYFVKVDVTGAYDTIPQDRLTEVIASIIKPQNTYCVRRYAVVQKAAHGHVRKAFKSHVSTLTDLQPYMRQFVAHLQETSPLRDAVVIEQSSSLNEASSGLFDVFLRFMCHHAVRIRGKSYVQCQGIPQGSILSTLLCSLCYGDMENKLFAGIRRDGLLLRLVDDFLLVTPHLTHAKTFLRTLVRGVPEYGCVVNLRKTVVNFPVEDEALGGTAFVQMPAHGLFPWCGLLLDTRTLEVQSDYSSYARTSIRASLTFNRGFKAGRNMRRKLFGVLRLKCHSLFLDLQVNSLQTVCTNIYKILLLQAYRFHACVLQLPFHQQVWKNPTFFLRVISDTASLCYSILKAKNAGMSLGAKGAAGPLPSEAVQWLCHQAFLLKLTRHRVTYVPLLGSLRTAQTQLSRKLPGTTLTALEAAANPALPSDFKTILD
smiles,measurement,setting,value
"CC(C)(O)CC[C@@H](O)[C@](C)(O)[C@H]1CC[C@@]2(O)C3=CC(=O)[C@@H]4C[C@@H](O)[C@@H](O)C[C@]4(C)[C@H]3CC[C@]12C [Ecdysterone, ecdysterone]",increase in telomerase activity (in words),concentrations of 0.062-0.25 μg/ml,significant increase
same,% increase in Telomerase activity,ecdysterone 0.062 μg/ml,62.1%
same,% increase in Telomerase activity,ecdysterone 0.125 μg/ml,64.7%
same,% increase in Telomerase activity,ecdysterone 0.25 μg/ml,63.31%
same,% increase in Telomerase activity,ecdysterone 0.5 μg/ml,Nil
